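The compound was tested at five concentrations on cells cultured in 96-well plates, with a 48-hour exposure period. TGI denotes the concentration required for complete inhibition of growth.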
Columns and labels:
Assay in all cases: NCI anticancer screen, dose series, 48 h
[1] = test system: 786-0 renal
[2] = test system: A498 renal
[3] = test system: A549 NSCLC
[4] = test system: ACHN renal
[5] = test system: BT-549 breast
[6] = test system: CAKI-1 renal
[7] = test system: CCRF-CEM leukemia
[8] = test system: COLO 205 colon
[9] = test system: DU-145 prostate
[10] = test system: EKVX NSCLC
[11] = test system: HCC-2998 colon
[12] = test system: HCT-116 colon
[13] = test system: HCT-15 colon
[14] = test system: HL-60(TB) leukemia
[15] = test system: HOP-62 NSCLC
[16] = test system: HOP-92 NSCLC
[17] = test system: HS 578T breast
[18] = test system: HT29 colon
[19] = test system: IGROV1 ovarian
[20] = test system: KM12 colon
[21] = test system: LOX IMVI melanoma
[22] = test system: M14 melanoma
[23] = test system: MALME-3M melanoma
[24] = test system: MCF7 breast
[25] = test system: MDA-MB-231 breast
[26] = test system: MDA-MB-435
[27] = test system: MDA-N
[28] = test system: NCI-H23 lung
[29] = test system: NCI-H460 lung
[30] = test system: NCI-H522 lung
[31] = test system: NCI/ADR-RES ovarian
[32] = test system: OVCAR-3 ovarian
[33] = test system: OVCAR-4 ovarian
[34] = test system: OVCAR-5 ovarian
[35] = test system: OVCAR-8 ovarian
[36] = test system: PC-3 prostate
[37] = test system: RPMI-8226 leukemia
[38] = test system: RXF 393 renal
[39] = test system: SF-268 CNS
[40] = test system: SF-295 CNS
[41] = test system: SF-539 CNS
[42] = test system: SK-MEL-2 melanoma
[43] = test system: SK-MEL-28 melanoma
[44] = test system: SK-MEL-5 melanoma
[45] = test system: SK-OV-3 ovarian
[46] = test system: SN12C renal
[47] = test system: SNB-19 CNS
[48] = test system: SNB-75 CNS
[49] = test system: SR leukemia
[50] = test system: SW-620 colon
[51] = test system: T-47D breast
[52] = test system: TK-10 renal
[53] = test system: U251 CNS
[54] = test system: UACC-257 melanoma
[55] = test system: UACC-62 melanoma
[56] = test system: UO-31 renal
[57] = test system: K-562 leukemia
[58] = test system: MOLT-4 leukemia
[59] = test system: NCI-H226 lung

`COCC12CCC(OC)C34C5CC6(O)C(OC)C=C(C5C6OC(=O)c5ccccc5)C(C(OC)C13)C4N(C)C2` (stereo not drawn) was tested, and the TGI [1] was greater than 100 µM, the TGI [2] was greater than 100 µM and the TGI [3] was greater than 100 µM. It also gave a TGI [4] greater than 100 µM, a TGI [5] greater than 100 µM and a TGI [6] greater than 100 µM. The TGI [7] was greater than 100 µM, the TGI [8] was greater than 100 µM and the TGI [9] was greater than 100 µM. It also gave a TGI [10] greater than 100 µM, a TGI [11] greater than 100 µM and a TGI [12] greater than 100 µM. It also gave a TGI [13] greater than 100 µM, a TGI [14] greater than 100 µM and a TGI [15] greater than 100 µM. The TGI [16] was greater than 100 µM, the TGI [17] was greater than 100 µM and the TGI [18] was greater than 100 µM. It also gave a TGI [19] greater than 100 µM, a TGI [20] greater than 100 µM and a TGI [21] greater than 100 µM. It also gave a TGI [22] greater than 100 µM, a TGI [23] greater than 100 µM and a TGI [24] greater than 100 µM. It also gave a TGI [25] greater than 100 µM, a TGI [26] greater than 100 µM and a TGI [27] greater than 100 µM. The TGI [28] was greater than 100 µM, the TGI [29] was greater than 100 µM and the TGI [30] was greater than 100 µM. For the same molecule, the TGI [31] was greater than 100 µM, the TGI [32] was greater than 100 µM and the TGI [33] was greater than 100 µM. It also gave a TGI [34] greater than 100 µM, a TGI [35] greater than 100 µM and a TGI [36] greater than 100 µM. It also gave a TGI [37] greater than 100 µM, a TGI [38] greater than 100 µM and a TGI [39] greater than 100 µM. The TGI [40] was greater than 100 µM, the TGI [41] was greater than 100 µM and the TGI [42] was greater than 100 µM. The TGI [43] was greater than 100 µM, the TGI [44] was greater than 100 µM and the TGI [45] was greater than 100 µM. It also gave a TGI [46] greater than 100 µM, a TGI [47] greater than 100 µM and a TGI [48] greater than 100 µM. For the same molecule, the TGI [49] was greater than 100 µM, the TGI [50] was greater than 100 µM and the TGI [51] was greater than 100 µM. It also gave a TGI [52] greater than 100 µM, a TGI [53] greater than 100 µM and a TGI [54] greater than 100 µM. For the same molecule, the TGI [55] was greater than 100 µM and the TGI [56] was greater than 100 µM.

`C=CC(OC(=O)C(C)C)c1ccc(OC(=O)C(C)C)cc1` (stereo not drawn) showed a TGI [1] of 18.9 µM, a TGI [2] of 31.6 µM and a TGI [3] of 36.9 µM. It also gave a TGI [4] of 28 µM, a TGI [5] of 31.2 µM and a TGI [6] of 10.2 µM. It also gave a TGI [7] of 10.7 µM, a TGI [8] of 27.6 µM and a TGI [9] greater than 100 µM. It also gave a TGI [10] of 39.3 µM, a TGI [11] of 26.7 µM and a TGI [12] of 20.6 µM. For the same molecule, the TGI [13] was 20.2 µM, the TGI [14] was 21 µM and the TGI [15] was 22.6 µM. It also gave a TGI [16] of 31.4 µM, a TGI [17] greater than 100 µM and a TGI [18] of 26.3 µM. The TGI [19] was 32.7 µM, the TGI [57] was 66.6 µM and the TGI [20] was 5.16 µM. It also gave a TGI [21] of 16.6 µM, a TGI [22] of 21.4 µM and a TGI [23] of 22 µM. The TGI [24] was 12.2 µM, the TGI [25] was 35.5 µM and the TGI [26] was 26.4 µM. It also gave a TGI [27] of 25.9 µM, a TGI [58] of 49.7 µM and a TGI [59] of 39 µM. It also gave a TGI [28] of 51.4 µM, a TGI [29] of 30.9 µM and a TGI [30] of 3.56 µM. For the same molecule, the TGI [31] was 54.8 µM, the TGI [32] was 31.1 µM and the TGI [33] was 33.8 µM. It also gave a TGI [34] of 20.2 µM, a TGI [35] of 31.4 µM and a TGI [36] of 21.9 µM. For the same molecule, the TGI [37] was 11.7 µM, the TGI [39] was 62.2 µM and the TGI [40] was 29.1 µM. The TGI [41] was 30.7 µM, the TGI [42] was 24 µM and the TGI [43] was 23.8 µM. For the same molecule, the TGI [44] was 30.6 µM, the TGI [45] was 34 µM and the TGI [46] was 30 µM. It also gave a TGI [47] of 28.2 µM, a TGI [48] of 28.6 µM and a TGI [49] greater than 100 µM. For the same molecule, the TGI [50] was 20.7 µM, the TGI [51] was 69.8 µM and the TGI [53] was 15.3 µM. It also gave a TGI [54] of 27.9 µM, a TGI [55] of 31 µM and a TGI [56] of 30.9 µM.

From PubChem BioAssay (NCI)
